Measurements as given in paper PMC10893631, “Receptor-based pharmacophore modeling, molecular docking, synthesis and biological evaluation of novel VEGFR-2, FGFR-1, and BRAF multi-kinase inhibitors” (BMC Chemistry, 2024).
Like-named read-outs stand apart in the source and are kept apart here.

Key:
[1] = system: MDA-MB-468; test: NCI SRB growth inhibition (single dose 10 µM / five-dose); assay type: cell-based, human; settings: for inhibition at 10 µM: read-out: GI%; for GI50: MDA-MB-468, Breast cancer, five-dose
Method: (§1) Screening of cytotoxic activity against a panel of sixty human tumor cell lines The selected compounds by NCI were evaluated for their anticancer activity in a two- stage process. […] Then, the output from the single dose screen is reported as a mean graph. […] Assay protocol. […] For a typical screening experiment, cells are inoculated into 96 well microtiter plates in 100 µL at plating densities ranging from 5000 to 40,000 cells/well depending on the doubling time of individual cell lines. […] After 24 h, two plates of each cell line are fixed in situ with TCA, to represent a measurement of the cell population for each cell line at the time of drug addition (Tz). The experimental drugs are solubilized in dimethyl sulfoxide at 400-fold the desired final maximum test concentration and stored frozen prior to use. At the time of drug addition, an aliquot of frozen concentrate is thawed and diluted to twice the desired final maximum test concentration with complete medium containing 50 µg/mL gentamicin. Additional four, 10-fold or ½ log serial dilutions are made to provide a total of five drug concentrations plus control. Aliquots of 100 mL of these different drug dilutions are added to the appropriate microtiter wells already containing […] of medium, resulting in the required final drug concentrations. […] For adherent cells, the assay is terminated by the addition of cold TCA. […] The supernatant is discarded, and the plates are washed five times with tap water and air dried. Sulforhodamine B (SRB) solution ([…]) at 0.4% (w/v) in 1% acetic acid is added to each well, and plates are incubated for 10 min at room temperature. After staining, unbound dye is removed by washing five times with 1% acetic acid and the plates are air dried. […] Using the seven absorbance measurements [time zero, (Tz), control growth, (C), and test growth in the presence of drug at the five concentration levels (Ti)], the percentage growth is calculated at each of the drug concentrations levels. Percentage growth inhibition is calculated as: [(Ti Tz)/(C–Tz)] x 100 for concentrations for which Ti>/=Tz and [(Ti-Tz)/Tz] x 100 for concentrations for which Ti < Tz. Three dose response parameters are calculated for each experimental agent. […] The drug concentration resulting in total growth inhibition (TGI) is calculated from Ti = Tz. […] Values are calculated for each of these three parameters if the level of activity is reached; however, if the effect is not reached or is exceeded, the value for that parameter is expressed as greater or less than the maximum or minimum concentration tested.

[2] = system: T-47D; test: as above; assay type: cell-based, human; settings: for GI50: T-47D, Breast cancer, five-dose
Method: as §1

[3] = system: UO-31; test: as above; assay type: cell-based, human; settings: for inhibition at 10 µM: read-out: GI%; for GI50: UO-31, Renal cancer, five-dose
Method: as §1

[4] = system: SF-295; test: as above; assay type: cell-based, human; settings: for inhibition at 10 µM: read-out: GI%; for GI50: SF-295, CNS cancer, five-dose
Method: as §1

[5] = system: LOX IMVI; test: as above; assay type: cell-based, human; settings: for inhibition at 10 µM: read-out: GI%; for GI50: LOX IMVI, Melanoma, five-dose
Method: as §1

[6] = system: SK-MEL-5; test: as above; assay type: cell-based, human; settings: for inhibition at 10 µM: read-out: GI%; for GI50: SK-MEL-5, Melanoma, five-dose
Method: as §1

[7] = system: HL-60(TB); test: as above; assay type: cell-based, human; settings: for inhibition at 10 µM: read-out: GI%; for GI50: HL-60(TB), Leukemia, five-dose
Method: as §1

[8] = system: NCI-H460; test: as above; assay type: cell-based, human; settings: for inhibition at 10 µM: read-out: GI%; for GI50: NCI-H460, Non-small cell lung cancer, five-dose
Method: as §1

[9] = system: NCI-H322M; test: as above; assay type: cell-based, human; settings: for inhibition at 10 µM: read-out: GI%; for GI50: NCI-H322M, Non-small cell lung cancer, five-dose
Method: as §1

[10] = system: DU-145; test: as above; assay type: cell-based, human; settings: for inhibition at 10 µM: read-out: GI%; for GI50: DU-145, Prostate cancer, five-dose
Method: as §1

[11] = molecular target: T1, VEGFR-2 (Homo sapiens, UniProt P35968); test: VEGFR-2 kinase assay kit (BPS), Kinase-Glo Max luminescence; assay type: biochemical; settings: VEGFR-2, single dose 10 µM, duplicate, mean ± SD
T1 construct: purchased BPS Biosciences 40325
T1 sequence (P35968 20-1356): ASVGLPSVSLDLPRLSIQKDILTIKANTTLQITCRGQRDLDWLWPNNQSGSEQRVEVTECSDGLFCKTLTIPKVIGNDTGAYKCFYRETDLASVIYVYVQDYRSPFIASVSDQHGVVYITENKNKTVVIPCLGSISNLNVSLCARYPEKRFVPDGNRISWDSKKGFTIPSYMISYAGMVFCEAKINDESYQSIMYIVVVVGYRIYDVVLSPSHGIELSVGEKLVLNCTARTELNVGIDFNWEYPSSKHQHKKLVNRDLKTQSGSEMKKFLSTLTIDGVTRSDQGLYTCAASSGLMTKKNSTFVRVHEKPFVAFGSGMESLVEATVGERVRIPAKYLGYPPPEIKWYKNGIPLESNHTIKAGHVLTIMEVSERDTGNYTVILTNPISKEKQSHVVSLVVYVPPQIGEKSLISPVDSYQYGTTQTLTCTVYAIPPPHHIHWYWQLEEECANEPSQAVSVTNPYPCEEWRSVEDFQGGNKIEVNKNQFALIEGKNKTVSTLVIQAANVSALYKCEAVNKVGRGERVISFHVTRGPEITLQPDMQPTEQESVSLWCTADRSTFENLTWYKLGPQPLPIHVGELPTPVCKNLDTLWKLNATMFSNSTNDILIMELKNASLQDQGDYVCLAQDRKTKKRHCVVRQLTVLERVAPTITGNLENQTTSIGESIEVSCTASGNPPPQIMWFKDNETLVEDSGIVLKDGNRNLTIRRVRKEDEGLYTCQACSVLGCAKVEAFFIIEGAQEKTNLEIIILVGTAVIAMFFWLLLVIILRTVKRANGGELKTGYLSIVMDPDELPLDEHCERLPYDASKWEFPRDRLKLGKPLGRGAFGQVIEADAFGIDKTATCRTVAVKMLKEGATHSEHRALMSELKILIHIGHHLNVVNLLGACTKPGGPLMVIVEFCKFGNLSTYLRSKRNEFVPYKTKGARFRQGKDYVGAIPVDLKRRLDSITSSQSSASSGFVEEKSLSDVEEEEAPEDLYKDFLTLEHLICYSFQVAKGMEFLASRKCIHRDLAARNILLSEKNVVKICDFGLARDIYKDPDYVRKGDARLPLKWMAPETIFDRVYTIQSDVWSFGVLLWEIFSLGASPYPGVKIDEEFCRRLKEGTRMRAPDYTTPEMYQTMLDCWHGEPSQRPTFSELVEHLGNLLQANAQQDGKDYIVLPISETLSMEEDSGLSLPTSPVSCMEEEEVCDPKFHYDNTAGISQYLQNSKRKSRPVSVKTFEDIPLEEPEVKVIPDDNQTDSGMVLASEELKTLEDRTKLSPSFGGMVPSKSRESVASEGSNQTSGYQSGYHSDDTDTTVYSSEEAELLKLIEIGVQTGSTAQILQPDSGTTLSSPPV
Method: 2. Biochemical kinase assay procedure
The inhibitory activity against different kinases was determined using kinase kits […]
from BPS Biosciences and kinase-Glo Max luminescence kinase assay kit (Promega).
The assay was carried out according to the protocol provided by the manufacturer. A stock solution of the synthesized derivatives in 100% DMSO was prepared. Subsequently, the compounds were diluted to 10% DMSO.
A master mixture was prepared according to the number of wells. For VEGFR-2 and FGFR-1 biochemical assays each well include 6 μl of 5x Kinase Buffer 1 + 1 μl of 500 μM ATP + 1 μl of PTK Substrate (Poly-Glu,Tyr 4:1) (10 mg/ml) + 17 μl of distilled water. For BRAF assay each well include 6 μl of 5x Kinase Buffer 1 + 1 μl of ATP (500 μM) + 10 μl of 5X Raf substrate + 8 μl of distilled water. 1x Kinase buffer 1 was prepared by mixing 600 μl of 5x Kinase Buffer 1 with 2400 μl water to give 3 mL. Kinases were thawed on ice and were diluted with 1x Kinase Buffer 1.
To start the biochemical reaction, 25 µL of the master mixture was added to each well in 96 well plate. 5 µL of 10% DMSO was added to positive control wells and blank wells. 5 µL of diluted inhibitor was added to each well labelled with the test inhibitor so that the final concentration of DMSO is 1% in all reactions. Then 20 µL of (1 ng / μl) in case of VEGFR-2 and FGFR-1 or (2.5 ng/μl) in case of BRAF in 1x kinase buffer was added to positive control wells and wells labelled with the inhibitor, while 20 µL 1x kinase buffer 1 was added to the […]
The plate was incubated at 30 °C for 45 min. Subsequently, 50 μl of Kinase-Glo Max luminescence reagent was added to each well and the plate was covered with aluminum foil and incubated at room temperature 15 min. Finally, the luminescence was recorded using multimode microplate reader. Kinase activity assays were performed in duplicate at each […]
The luminescence data were analyzed as follows. The difference between luminescence intensities in the absence of kinase (Lut) and in the presence of kinase (Luc) was defined as 100 % activity (Lut – Luc). Using luminescence signal (Lu) in the presence of the compound, % activity was calculated as: % activity = {(Lut - Lu)/(Lut - Luc)}×100%. The […]
concentration of the test compounds required to reduce the kinase activity by 50% was determined from dose-response curves and recorded as their IC50. […]

[12] = system: NCI panel of 60 tumor cell lines; test: NCI SRB growth inhibition, whole panel mean (single dose 10 µM / five-dose); assay type: cell-based, human; settings: for GI50: mean over NCI cancer cell lines, five-dose
Method: as §1

[13] = Homo sapiens, MDA-MB-468 (Breast cancer), 10 µM
[14] = Homo sapiens, UO-31 (Renal cancer), 10 µM
[15] = Homo sapiens, SF-295 (CNS cancer), 10 µM
[16] = Homo sapiens, LOX IMVI (Melanoma), 10 µM
[17] = Homo sapiens, SK-MEL-5 (Melanoma), 10 µM
[18] = Homo sapiens, HL-60(TB) (Leukemia), 10 µM
[19] = Homo sapiens, NCI-H460 (Non-small cell lung cancer), 10 µM
[20] = Homo sapiens, NCI-H322M (Non-small cell lung cancer), 10 µM
[21] = Homo sapiens, DU-145 (Prostate cancer), 10 µM
[22] = Homo sapiens, 10 µM, mean over NCI 60 cell lines, > 100% = lethal effect, read-out: mean growth inhibition % (GI%)
[23] = Homo sapiens, mean over NCI panel of 60 tumor cell lines, 10 µM, read-out: Mean growth inhibition %

COc1cccc(C=NNC(=O)c2ccc3[nH]c(-c4ccccc4)nc3c2)c1O [8d, N'-(2-hydroxy-3-methoxybenzylidene)-2-phenyl-1H-benzo[d]imidazole-5-carbohydrazide]
inhibition at 10 µM [1, 13]: > 100% | GI50 ([1]; Homo sapiens): 890 nM | GI50 ([2]; Homo sapiens, T47D): 1930 nM | inhibition at 10 µM [3, 14]: 98.5% | GI50 ([3]; Homo sapiens): 2340 nM | inhibition at 10 µM [4, 15]: 83.2% | GI50 ([4]; Homo sapiens): 2930 nM | inhibition at 10 µM [5, 16]: 92.9% | GI50 ([5]; Homo sapiens): 1340 nM | inhibition at 10 µM [6, 17]: > 100% | GI50 ([6]; Homo sapiens): 1400 nM | inhibition at 10 µM [7, 18]: 90% | GI50 ([7]; Homo sapiens): 2420 nM | inhibition at 10 µM [8, 19]: 86.4% | GI50 ([8]; Homo sapiens): 2630 nM | inhibition at 10 µM [9, 20]: 88% | GI50 ([9]; Homo sapiens): 1410 nM | inhibition at 10 µM [10, 21]: 79.7% | GI50 ([10]; Homo sapiens): 3050 nM | inhibition at 10 µM [11]: 53.8 ± 2.62% | inhibition at 10 µM [12, 22]: 92.5% | GI50 ([12]; Homo sapiens): 2620 nM | inhibition at 10 µM [12, 23]: 92.5%

COc1ccc(C=NNC(=O)c2ccc3[nH]c(-c4ccccc4)nc3c2)cc1O [8e, N'-(3-Hydroxy-4-methoxybenzylidene)-2-phenyl-1H-benzo[d]imidazole-5-carbohydrazide]
inhibition at 10 µM [1, 13]: 7.65% | inhibition at 10 µM ([2]; Homo sapiens, T47D, T-47D (Breast cancer), 10 µM, read-out: GI%): 39.3% | inhibition at 10 µM [3, 14]: 38.2% | inhibition at 10 µM [4, 15]: 10.9% | inhibition at 10 µM [5, 16]: < 5% | inhibition at 10 µM [6, 17]: 39.5% | inhibition at 10 µM [7, 18]: 24.7% | inhibition at 10 µM [8, 19]: < 5% | inhibition at 10 µM [9, 20]: < 5% | inhibition at 10 µM [10, 21]: < 5% | inhibition at 10 µM [11]: 36.4 ± 1.91% | inhibition at 10 µM [12, 22]: 16.8% | inhibition at 10 µM [12, 23]: 16.8%

N'-(2-Hydroxybenzylidene)-2-phenyl-1H-benzo[d]imidazole-5-carbohydrazide [8a]
GI% ([1]; MDA-MB-468 (Breast cancer), 10 µM): 99.81% | GI50 [1]: 3450 nM | GI% ([2]; T-47D (Breast cancer), 10 µM): 93.65% | GI50 [2]: 3380 nM | GI% ([3]; UO-31 (Renal cancer), 10 µM): 86.22% | GI50 [3]: 600 nM | GI% ([4]; SF-295 (CNS cancer), 10 µM): L (GI% > 100) | GI50 [4]: 2700 nM | GI% ([5]; LOX IMVI (Melanoma), 10 µM): 88.38% | GI50 [5]: 2000 nM | GI% ([6]; SK-MEL-5 (Melanoma), 10 µM): 85.73% | GI50 [6]: 3750 nM | GI% ([7]; HL-60(TB) (Leukemia), 10 µM): 95.58% | GI50 [7]: 3080 nM | GI% ([8]; NCI-H460 (Non-small cell lung cancer), 10 µM): L (GI% > 100) | GI50 [8]: 2370 nM | GI% ([9]; NCI-H322M (Non-small cell lung cancer), 10 µM): 94.14% | GI50 [9]: 2130 nM | GI% ([10]; DU-145 (Prostate cancer), 10 µM): L (GI% > 100) | GI50 [10]: 2750 nM | % Inhibition [11]: 43.03 ± 2.32% | mean growth inhibition % (GI%) ([12]; 10 µM, mean over NCI 60 cell lines, > 100% = lethal effect): 97.73% | GI50 [12]: 3000 nM | Mean growth inhibition % ([12]; mean over NCI panel of 60 tumor cell lines, 10 µM): 97.73%
